Experimental data reported in ChEMBL document CHEMBL3727366, “Heterocyclic compounds for the treatment of stress-related conditions” (2013).
Activity calls are given as the source filed them. The rule behind the calls is not given here.

Key:
Rattus norvegicus [1] = experiment: Inhibition of tail-pinch stress-induced feeding behavior in Wistar rat at 5 mL/kg, po dosed 1 or 2 hrs before tail-pinch stimulus; type: functional, organism-based
Rattus norvegicus [2] = experiment: Inhibition of restraint stress-induced defecation in Wistar rat at 5 mL/kg, po dosed 1 or 2 hrs before restraint stress; type: functional, organism-based
[3] = biological target: T1, Prolactin-releasing peptide receptor (Homo sapiens, UniProt P49683); experiment: Displacement of [3H]-PrRP from human GPR10 receptor expressed in HEK293 cell membranes incubated for 90 mins by liquid scintillation counting method
T1 sequence (P49683 whole entry): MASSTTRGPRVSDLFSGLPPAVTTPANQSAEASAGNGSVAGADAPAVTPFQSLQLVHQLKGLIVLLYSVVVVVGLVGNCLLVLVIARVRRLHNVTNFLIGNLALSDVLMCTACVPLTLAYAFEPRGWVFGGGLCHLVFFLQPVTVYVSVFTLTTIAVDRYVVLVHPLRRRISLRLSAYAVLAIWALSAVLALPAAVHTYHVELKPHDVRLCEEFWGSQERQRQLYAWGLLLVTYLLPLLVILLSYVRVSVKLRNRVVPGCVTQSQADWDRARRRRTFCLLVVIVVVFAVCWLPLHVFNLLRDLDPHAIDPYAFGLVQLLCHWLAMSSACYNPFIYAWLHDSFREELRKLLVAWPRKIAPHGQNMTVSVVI

Compound | inhibition (Rattus norvegicus [1]) | inhibition (Rattus norvegicus [2]) | Ki [3]
COn1c(N[C@@H](C)C2CCCCC2)nc2c(c1=O)CN(C(=O)c1ccc(C#N)cc1F)CC2 | Active | Active | 56 nM
COc1ccc2oc(C(=O)N3CCc4nc(N[C@@H](C)c5ccc(C(F)(F)F)cc5)n(OC)c(=O)c4C3)cc2c1 | Active | Active | 14 nM
CC#CCn1c(N[C@@H](C)c2ccc(C(F)(F)F)cc2)nc2c(c1=O)CN(C(=O)c1ccc(OC)cc1)CC2 | Active | Active | 
COn1c(NCc2ccc(C(F)(F)F)cc2)nc2c(c1=O)CN(C(=O)c1ccc(Cl)cc1)CC2 | Active | Active | 
C#CCn1c(N[C@@H](C)c2ccc(C(F)(F)F)cc2)nc2c(c1=O)CN(C(=O)c1c(F)cccc1F)CC2 | Active | Active | 
C[C@H](Nc1nc2c(c(=O)n1N(C)C)CN(C(=O)c1c(F)cc(F)cc1F)CC2)c1ccc(C(F)(F)F)cc1 | Active | Active | 
COn1c(N[C@@H](C)c2ccc(C(F)(F)F)cc2)nc2c(c1=O)CN(C(=O)c1ccc(OC(F)(F)F)cc1)CC2 | Active | Active | 
COn1c(N[C@@H](C)c2ccc(C(F)(F)F)cc2)nc2c(c1=O)CN(C(=O)c1ccc3c(c1)CCC(=O)N3C)CC2 | Active | Active | 
C[C@H](Nc1nc2c(c(=O)n1N(C)C)CN(C(=O)COc1ccc(Cl)cc1)CC2)c1ccc(C(F)(F)F)cc1 | Active | Active | 
C#CCCn1c(N[C@@H](C)c2ccc(C(F)(F)F)cc2)nc2c(c1=O)CN(C(=O)c1ccc(-n3ccnc3)cc1)CC2 | Active | Active | 
CC#CCn1c(N[C@@H](C)c2ccc(C(F)(F)F)cc2)nc2c(c1=O)CN(C(=O)c1ccc3ccccc3n1)CC2 | Active | Active | 
CC#CCn1c(N[C@@H](C)c2ccc(C(F)(F)F)cc2)nc2c(c1=O)CN(C(=O)c1ccc(-c3cnco3)cc1)CC2 | Active | Active | 
COn1c(N2CCCC2c2ccc(C(F)(F)F)cc2)nc2c(c1=O)CN(C(=O)c1ccc(Cl)cc1)CC2 (stereo unspecified) | Active | Active | 
CC#CCn1c(N[C@@H](C)c2ccc(C(F)(F)F)cc2)nc2c(c1=O)CN(C(=O)c1ccc(Cl)cc1)CC2 | Active | Active | 
COn1c(N[C@@H](C)c2ccc(C(F)(F)F)cc2)nc2c(c1=O)CN(C(=O)c1ccc(Cl)cc1)CC2 | Active | Active | 
C[C@H](Nc1nc2c(c(=O)n1N(C)C)CN(C(=O)c1ccc(C#N)cc1F)CC2)c1ccc(C(F)(F)F)cc1 | Active | Active | 
CC#CCn1c(N[C@@H](C)c2ccc(C(F)(F)F)cc2)nc2c(c1=O)CN(C(=O)c1ccc3c(c1)CCC(=O)N3)CC2 | Active | Active | 
C[C@H](Nc1nc2c(c(=O)n1N(C)C)CN(C(=O)c1ccc(Cl)cc1)CC2)c1ccc(Cl)cc1 | Active | Active | 
C#CCCn1c(N[C@@H](C)c2ccc(C(F)(F)F)cc2)nc2c(c1=O)CN(C(=O)c1ccc(C#N)cc1)CC2 | Active | Active | 
COn1c(N[C@@H](C)c2ccc(C(F)(F)F)cc2)nc2c(c1=O)CN(C(=O)c1ccc(C#N)cc1F)CC2 | Active | Active | 
CC#CCn1c(N[C@@H](C)c2ccc(C(F)(F)F)cc2)nc2c(c1=O)CN(C(=O)c1ccc3c(c1)OCO3)CC2 | Active | Active | 
C#CCCn1c(N[C@@H](C)c2ccc(C(F)(F)F)cc2)nc2c(c1=O)CN(C(=O)c1nc3ccccc3[nH]1)CC2 | Active | Active | 
CC#CCn1c(N[C@@H](C)c2ccc(C(F)(F)F)cc2)nc2c(c1=O)CN(C(=O)c1ccc(C)c(C)c1)CC2 | Active | Active | 
COn1c(N[C@@H](C)c2ccc(C(F)(F)F)cc2)nc2c(c1=O)CN(C(=O)c1ccc(C#N)cc1)CC2 | Active | Active | 
C#CCn1c(N[C@@H](C)c2ccc(C(F)(F)F)cc2)nc2c(c1=O)CN(C(=O)c1ccc(C#N)cc1F)CC2 | Active | Active | 
COn1c(N[C@@H](C)c2ccc(C(F)(F)F)cc2)nc2c(c1=O)CN(C(=O)c1cc3ccccc3s1)CC2 |  |  | 15 nM
CC#CCn1c(N[C@@H](C)c2ccc(C(F)(F)F)cc2)nc2c(c1=O)CN(C(=O)c1ccc(C#N)cc1)CC2 | Active | Active | 
C#CCn1c(N[C@@H](C)c2ccc(Cl)cc2)nc2c(c1=O)CN(C(=O)c1ccc(Cl)cc1)CC2 | Active | Active | 

Compound | inhibition (Rattus norvegicus [1]) | inhibition (Rattus norvegicus [2]) | Ki [3]
CC#CCn1c(N[C@@H](C)c2ccc(C(F)(F)F)cc2)nc2c(c1=O)CN(C(=O)c1cc3ccccn3n1)CC2 | Active | Active | 
C#CCn1c(N[C@@H](C)c2ccc(C(F)(F)F)cc2)nc2c(c1=O)CN(C(=O)c1cccc(C#N)c1)CC2 | Active | Active | 
C#CCCn1c(N[C@@H](C)c2ccc(C(F)(F)F)cc2)nc2c(c1=O)CN(C(=O)c1ccc(C#N)cc1F)CC2 | Active | Active | 
COn1c(N[C@@H](C)c2ccc(C(F)(F)F)cc2)nc2c(c1=O)CN(C(=O)c1cnc3ccccc3c1)CC2 | Active | Active | 
C#CCCn1c(N[C@@H](C)c2ccc(C(F)(F)F)cc2)nc2c(c1=O)CN(C(=O)c1ccc(C(=O)N(C)C)cc1)CC2 | Active | Active | 
COn1c(N[C@@H](C)c2ccc(C(F)(F)F)cc2)nc2c(c1=O)CN(C(=O)c1ccc(Cl)c(C)c1)CC2 | Active | Active | 
CCOc1ccc(C(=O)N2CCc3nc(N[C@@H](C)c4ccc(C(F)(F)F)cc4)n(OC)c(=O)c3C2)cc1 | Active | Active | 
CC#CCn1c(N[C@@H](C)c2ccc(C(F)(F)F)cc2)nc2c(c1=O)CN(C(=O)c1ccc3cccnc3c1)CC2 | Active | Active | 
CCC(Nc1nc2c(c(=O)n1OC)CN(C(=O)c1ccc(Cl)cc1)CC2)c1ccc(Cl)cc1 (stereo unspecified) | Active | Active | 
COn1c(NC(c2ccc(Cl)cc2)C(C)C)nc2c(c1=O)CN(C(=O)c1ccc(Cl)cc1)CC2 (stereo unspecified) | Active | Active | 
C[C@H](Nc1nc2c(c(=O)n1N(C)C)CN(C(=O)COc1ccc(Cl)cc1)CC2)c1ccc(Cl)cc1 | Active | Active | 
C[C@H](Nc1nc2c(c(=O)n1N1CCOCC1)CN(C(=O)c1ccc(C#N)cc1)CC2)c1ccc(C(F)(F)F)cc1 | Active | Active | 
COn1c(NCc2ccc(Cl)cc2)nc2c(c1=O)CN(C(=O)c1ccc(Cl)cc1)CC2 | Active | Active | 
C=Cc1ccc(C(=O)N2CCc3nc(N[C@@H](C)c4ccc(C(F)(F)F)cc4)n(OC)c(=O)c3C2)cc1 | Active | Active | 
C#CCCn1c(N[C@@H](C)c2ccc(C(F)(F)F)cc2)nc2c(c1=O)CN(C(=O)c1ccc(C)cc1)CC2 | Active | Active | 
C#CCn1c(N[C@@H](C)c2ccc(C(F)(F)F)cc2)nc2c(c1=O)CN(C(=O)c1ccc(Cl)cc1)CC2 | Active | Active | 
COc1cc(Cl)ccc1C(=O)N1CCc2nc(N[C@@H](C)c3ccc(C(F)(F)F)cc3)n(OC)c(=O)c2C1 | Active | Active | 
CC#CCn1c(N[C@@H](C)c2ccc(C(F)(F)F)cc2)nc2c(c1=O)CN(C(=O)c1cnc3ccccc3c1)CC2 | Active | Active | 
CC#CCn1c(N[C@@H](C)c2ccc(C(F)(F)F)cc2)nc2c(c1=O)CN(C(=O)c1ccc(C#N)cc1F)CC2 | Active | Active | 
COn1c(N[C@@H](C)c2ccc(C(F)(F)F)cc2)nc2c(c1=O)CN(C(=O)c1cc3cc(Cl)ccc3o1)CC2 | Active | Active | 
C#CCCn1c(N[C@@H](C)c2ccc(C(F)(F)F)cc2)nc2c(c1=O)CN(C(=O)c1ccc(-c3cnco3)cc1)CC2 | Active | Active | 
COn1c(NC(CCC(F)(F)F)c2ccc(Cl)cc2)nc2c(c1=O)CN(C(=O)c1ccc(Cl)cc1)CC2 (stereo unspecified) | Active | Active | 
CCOc1ccc(CNc2nc3c(c(=O)n2OC)CN(C(=O)c2ccc(C#N)cc2F)CC3)cc1 | Active | Active | 
COn1c(N[C@@H](C)c2ccc(Cl)cc2)nc2c(c1=O)CN(C(=O)c1ccc(Cl)cc1)CC2 | Active | Active | 
C[C@H](Nc1nc2c(c(=O)n1N(C)C)CN(C(=O)c1ccc(Cl)cc1)CC2)c1ccc(C(F)(F)F)cc1 | Active | Active | 
CC#CCn1c(N[C@@H](C)c2ccc(C(F)(F)F)cc2)nc2c(c1=O)CN(C(=O)c1ccc(-n3ccnc3)cc1)CC2 | Active | Active | 
COn1c(N[C@@H](C)c2ccc(Cl)cc2)nc2c(c1=O)CN(C(=O)c1cc3cccnc3s1)CC2 | Active | Active | 
